Like-named read-outs stand apart in the source and are kept apart here.
How the values were obtained:
skin of rabbits = assay: Topical assay for primary acute dermal irritation; assay type: in vivo
Description: Twelve healthy, young, adult, female New Zealand White rabbits (Orycetolagus cuniculus), are used in the study. […] At the start of the study, the animals are in the weight range between 2.0 and 3.0 kilograms, and are approximately 11 weeks of age. Animals selected for the test are not subjected to any previous experimental procedures, and their skin is free from irritation, trauma and disease.
Six animals are treated in this manner.
The application sites are prepared by clipping the skin of the trunk free of hair approximately 24 hours before application of the dose. One application site on each animal is abraded by making minor incisions through the stratum corneum, but not sufficient to disturb the derma (that is, not sufficiently deep to produce bleeding). The second application site is intact skin.
The dose is applied to a small area (approximately 6 cm^2) of skin and covered with a gauze patch which is held in place with Vetrap bandaging. The patches are applied to one intact site and one abraded site per animal. The test substance is kept in contact with the skin for 24 hours. The skin is not rinsed following the 24 hour exposure period.
Animals are observed for signs of erythma and edema 24 and 72 hours after application of the test material. Observations are scored according to the Draize Scale for Scoring Skin Reactions as in Draize, J. H., Dermal Toxicity, Appraisal of the Safety of Chemicals in Foods, Drugs and Cosmetics Dermal Toxicity, pp. 46-59, Association of Food and Drug Officials of the U.S., Topeka, Kans., 1965. […] Animals are weighed at the beginning and at the end of the observation period.

photoaged skin = settings: cited from earlier work
[1] = test system: Human neonatal foreskin fibroblasts; assay: Growth of human neonatal foreskin fibroblasts (cell number); assay type: cell-based; settings: two days
Text: Human neonatal foreskin keratinocytes and human neonatal foreskin fibroblasts were isolated and grown in monlayer culture. Culture medium for keratinocytes was Keratincyte Growth Medium (KGM) from Clonetics, Inc., San Diego. Calif. The culture medium for fibroblasts was Dulbecco's Modified Eagle's Medium (DMEM) supplemented with non-essential amino acids and 10% fetal bovine serum. The culture medium was obtained from GIBCO, Grand Island, N.Y. and the FBS was from Hyclone Labs, Inc., Logan, Utah.
Cells at passage 2-4 were plated in wells of a 24 well dish at approximately 5×10^4 cells per well in their respective culture medium. Incubation was at 37° C. with 5% CO2. After the cells attached and spread overnight, they were washed two times in serum-free keratincyte basal medium (KBM) and incubated in 1 ml of KBM or in 1 ml of KGM. Compound IV was added in varying concentrations to the wells. All-trans-retinoic acid (or no treatment) was added to control wells. The cells were incubated for an additional two days for fibroblasts and three days for keratinocytes, and were then harvested and counted. The effect of IV and of the controls are shown for both cell types in Tables 9 and 10: […]

keratinocytes = settings: in vitro; cited from earlier work
rabbit skin = assay: Draize test for irritation (rabbit dermal irritation); assay type: in vivo
[2] = test system: corneal epithelial wounds; settings: cited from earlier work
[3] = 0.1% retinoic acid hydrophilic cream, 16 weeks

In the case of `COc1ccc(C(=O)COC(=O)/C=C(C)/C=C/C=C(C)\C=C\C2=C(C)CCCC2(C)C)cc1` [Compound 2, 2-(9-cis-retinoyloxy)-4'-methoxyacetophenone], the “Signs of erythema or edema formation (Draize scale)” value (skin of rabbits; 0.5 ml topical, intact and abraded skin, 24 and 72 hours) is reported as “no signs of erythema or edema formation are evident in any of the 12 test animals”, the Body weight change (skin of rabbits; beginning vs end of observation period, all 12 animals) is reported as “All 12 animals exhibited a gain in body weight” and the “Overt signs of toxicity” value (skin of rabbits; rabbit, in vivo) is reported as “No overt signs of toxicity are evident”.

In the case of `CC1=C(/C=C/C(C)=C/C=C/C(C)=C/C(=O)O)C(C)(C)CCC1` [all-trans-retinoic acid, reference compound], the “Effect on sun damaged skin (Weiss study)” value (photoaged skin; [3]) is listed as “some positive effects on the surface texture and wrinkling of sun damaged facial skin, and on the histology of the epidermal and stratum corneum layers of dorsal forearm skin”, the “Irritancy (Weiss study)” value (photoaged skin; [3]) is listed as “moderately severe irritancy level” and the “Patients who experienced dermatitis” value (photoaged skin; Weiss et al.) is listed as 92%. The “Improvement of photoaging of the skin” value (photoaged skin; cream containing 0.1% tretinoin, daily topical) was “could be improved within a 16-week period”, the “Redness, peeling, stinging, burning and dryness” value (photoaged skin; topical tretinoin therapy) was “consistently experienced by nearly all subjects” and the “Subjects with dermatitis severe enough to require topical steroids” value (photoaged skin; topical tretinoin therapy) was “Eleven of fifteen subjects”. For the same compound, the “Subjects withdrawn due to severity of dermatitis” value (photoaged skin; topical tretinoin therapy) was “Three of fifteen”, the Number of fibroblasts ([1]; 0.25 μg/ml) was 10.1 ± 0.2 × 10^4 cells and the Number of fibroblasts ([1]; 0.5 μg/ml) was 10.1 ± 0.1 × 10^4 cells. For the same compound, the Number of fibroblasts ([1]; 1.0 μg/ml) was 9.6 ± 0.1 × 10^4 cells, the “Effect on keratinocyte proliferation and growth” value (keratinocytes) was “capacity to stimulate proliferation of quiescent keratinocytes in vitro” and the “Erythema Grade” value (rabbit skin; dose 0.001%) was 0.4. For the same compound, the “Erythema Grade” value (rabbit skin; dose 0.01%) was 0.8, the “Erythema Grade” value (rabbit skin; dose 0.1%) was 2.8 and the “ID50, dermal irritation” value (rabbit skin; rabbit) was 0.01%. For the same compound, the “Increase in the healing rate” value ([2]; 0.1% tretinoin three times per day) was 21% and the “Increase in the healing rate” value ([2]; five times a day) was 35%.

— patent publication US5837728A, “9-cis retinoic acid esters and amides and uses thereof” (priority 1995, dated 1998)
